Measured values published in patent publication US6284768A, “Src family SH2 domain inhibitors” (Boehringer Ingelheim Pharmaceuticals, Inc., priority 1999, dated 2001).

How the values were obtained:
[1] = target: T1, p56lck GST-SH2 (lck SH2 domain) (Homo sapiens, UniProt P06239); test: Receptor-ligand equilibrium binding constants by surface plasmon resonance (biosensor), lck SH2 domain; details: Table 1, compounds of formula (II)
T1 construct: GST (N)

[2] = system: Inter-leukin 2 (IL-2) production by activated Human Primary T Lymphocytes; test: Primary T cell assay: inhibition of IL-2 production by activated human primary CD4 positive T lymphocytes; format: cell-based; details: Homo sapiens, CD4 positive, Table 5; mean IC50 value; CD4 positive T cells activated with anti-CD3/anti-CD28, IL-2 by ELISA; read-out: IC50 (blocking IL-2 production)
Protocol: Summary of Primary T Cell Assay.
Inhibitors of the lck SH2 domain were assayed for their ability to block Inter-leukin 2 (IL-2) production by activated Human Primary T Lymphocytes. Peripheral blood mononuclear cells were isolated from whole blood by centrifugation in ficoll-Pague partitioning medium. CD4 positive cells were purified using negative selection. […] The compounds, at the appropriate dilutions, were added, and the cells were incubated for 60 minutes at 37° C. The CD4 positive T cells were then activated by the addition of anti-CD3 (60 ng/mL), anti CD28 (500 ng/mL) and goat anti mouse IgG coated beads, and incubated overnight at 37° C. The cells were pelleted, and the supernatents assayed for IL-2 by ELISA.
As SH2 domain containing proteins are intracellular, any therapeutic agent must be able to cross biological membranes. […] These characteristics may be quantified by observing inhibition in IL-2 production in human blood CD4 positive T-lymphocytes after T cell receptor and CD28 cross-linking.

T1 sequence (P06239 127-224 limits assumed): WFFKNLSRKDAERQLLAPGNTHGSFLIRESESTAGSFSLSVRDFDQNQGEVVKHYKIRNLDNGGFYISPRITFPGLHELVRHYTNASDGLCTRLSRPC

Row | Structure (SMILES) | Kd [1] [µM] | IC50 [2] [µM]
1 | Cc1ccn(Cc2ccc3c(c2)OCO3)c(=O)c1NC(=O)C(Cc1ccc(C(C)(C)C(=O)O)cc1)NC(=O)C(C)(C)c1ccc2ccccc2c1 (stereo not drawn) [Compound 154] | 1.2 | 45
2 | Cc1ccn(CCCCC(C)C)c(=O)c1NC(=O)C(Cc1ccc(C(C)(C)C(=O)O)cc1)NC(=O)Cc1ccc2ccccc2c1 (stereo not drawn) [Compound 145] | 0.84 | 56
3 | COc1ccc(Cn2ccc(C)c(NC(=O)C(Cc3ccc(C(C)(C)C(=O)O)cc3)NC(=O)C(C)(C)c3ccc(C(C)(C)C)cc3)c2=O)cc1 (stereo not drawn) [Compound 186] | 0.78 | 41
4 | COc1ccc(C(C)n2ccc(C)c(NC(=O)C(Cc3ccc(C(C)(C)C(=O)O)cc3)NC(=O)Cc3cccc4ccccc34)c2=O)cc1 (stereo not drawn) [Compound 178] | 0.68 | 65
5 | Cc1ccn(CCCc2ccccc2)c(=O)c1NC(=O)C(Cc1ccc(C(C)(C)C(=O)O)cc1)NC(=O)Cc1cccc2ccccc12 (stereo not drawn) [Compound 182] | 2.1 | 64
6 | COc1ccc(Cn2ccc(C)c(NC(=O)C(Cc3ccc(C(C)(C)C(=O)O)cc3)NC(=O)COc3cccc4c(N(C)C)cccc34)c2=O)cc1 (stereo not drawn) [Compound 175] | 0.78 | 108
7 | COc1ccc(Cn2ccc(C)c(NC(=O)[C@H](Cc3ccc(C(C)(C)C(=O)O)cc3)NC(=O)Cc3ccc4ccccc4c3)c2=O)cc1 [Compound 97] | 0.14 | 113
8 | Cc1ccn(CC2CCCCC2)c(=O)c1NC(=O)C(Cc1ccc(C(C)(C)C(=O)O)cc1)NC(=O)Cc1ccc2ccccc2c1 (stereo not drawn) [Compound 195] | 1.1 | 63
9 | COc1ccc(Cn2cc(Br)c(C)c(NC(=O)[C@H](Cc3ccc(C(C)(C)C(=O)O)cc3)NC(=O)Cc3ccc4ccccc4c3)c2=O)cc1 [Compound 220, 3-[2'-(S)-(2""-Naphthylacetyl)amino-3'-[4"-(1'"-carboxy-1'"-methyl)ethyl]benzene]propanoylamino-5-bromo-1-(4-methoxybenzyl)-4-methyl-2-pyridone] | 0.17 | 31
10 | CCOc1ccc(Cn2ccc(C)c(NC(=O)C(Cc3ccc(C(C)(C)C(=O)O)cc3)NC(=O)C(C)(C)c3cccc4ccccc34)c2=O)cc1 (stereo not drawn) [Compound 141] | 8.8 | 49
11 | Cc1ccn(CC2(c3ccccc3)CC2)c(=O)c1NC(=O)C(Cc1ccc(C(C)(C)C(=O)O)cc1)NC(=O)C(C)(C)c1ccc2ccccc2c1 (stereo not drawn) [Compound 215] | 5.9 | 36
12 | COc1ccc(Cn2ccc(C)c(N(C)C(=O)C(Cc3ccc(C(C)(C)C(=O)O)cc3)NC(=O)Cc3ccc4ccccc4c3)c2=O)cc1 (stereo not drawn) [Compound 151] | > 200 | 67
13 | COc1ccc(Cn2ccc(C)c(NC(=O)[C@H](Cc3ccc(C(C)(C)C(=O)O)cc3)NC(=O)Cc3ccc(NCC(C)(C)C)cc3)c2=O)cc1 [Compound 132] | 0.25 | 141
14 | CCOc1ccc(Cn2ccc(C)c(NC(=O)C(Cc3ccc(C(C)(C)C(=O)O)cc3)NC(=O)Cc3ccc4ccccc4c3)c2=O)cc1 (stereo not drawn) [Compound 135] | 1.3 | 35
15 | Cc1ccn(CC2(c3ccccc3)CC2)c(=O)c1NC(=O)C(Cc1ccc(C(C)(C)C(=O)O)cc1)NC(=O)Cc1cccc2ccccc12 (stereo not drawn) [Compound 213] | 2 | 166
16 | COc1ccc(Cn2ccc(C)c(NC(=O)[C@H](Cc3ccc(C(C)(C)C(=O)O)cc3)NC(=O)C(C)(C)c3cccc4ccccc34)c2=O)cc1 [Compound 119] | 3.6 | 52
17 | COc1ccc(Cn2ccc(C)c(NC(=O)[C@H](Cc3ccc(C(C)(C)C(=O)O)cc3)NC(=O)Cc3ccc(NCc4ccccc4)cc3)c2=O)cc1 [Compound 130] | 0.84 | 181
18 | COc1ccc(Cn2ccc(C)c(NC(=O)[C@H](Cc3ccc(C(C)(C)C(=O)O)cc3)NC(=O)Cc3c(C)cc(C)cc3C)c2=O)cc1 [Compound 117] | 0.37 | 108
19 | CCCCCn1ccc(C)c(NC(=O)C(Cc2ccc(C(C)(C)C(=O)O)cc2)NC(=O)Cc2ccc3ccccc3c2)c1=O (stereo not drawn) [Compound 192] | 1.2 | 169
20 | COc1ccc(Cn2ccc(C)c(NC(=O)[C@H](Cc3ccc(C(C)(C)C(=O)O)cc3)NC(=O)Cc3ccc(C(C)C)cc3)c2=O)cc1 [Compound 94] | 0.21 | 156
21 | COc1ccc(Cn2ccc(C)c(NC(=O)[C@H](Cc3ccc(C4(C(=O)O)CC4)cc3)NC(=O)Cc3ccc4ccccc4c3)c2=O)cc1 [Compound 218, 3-[2'-(S)-(2""-Naphthylacetyl)amino-3'-[4"-(1'"-carboxy)cyclopropyl]benzene]propanoylamino-1-(4-methoxybenzyl)-4-methyl-2-pyridone] | 1.8 | 90
22 | CCCCCCn1ccc(C)c(NC(=O)C(Cc2ccc(C(C)(C)C(=O)O)cc2)NC(=O)Cc2ccc(OC)cc2)c1=O (stereo not drawn) [Compound 208] | 0.8 | 279
23 | CCc1cn(Cc2ccc(OC)cc2)c(=O)c(NC(=O)C(Cc2ccc(C(C)(C)C(=O)O)cc2)NC(=O)Cc2ccc3ccccc3c2)c1C (stereo not drawn) [Compound 222] | 1.2 | 69
24 | Cc1ccn(CC2(c3ccccc3)CC2)c(=O)c1NC(=O)C(Cc1ccc(C(C)(C)C(=O)O)cc1)NC(=O)Cc1ccc2ccccc2c1 (stereo not drawn) [Compound 214] | 1.2 | 117
25 | CCCCCCCn1ccc(C)c(NC(=O)C(Cc2ccc(C(C)(C)C(=O)O)cc2)NC(=O)Cc2ccc3ccccc3c2)c1=O (stereo not drawn) [Compound 138] | 0.83 | 64
26 | COc1ccc(Cn2ccc(C)c(NC(=O)C(Cc3ccc(C(C)(C)C(=O)O)cc3)NC(=O)C(C)(C)c3ccccc3)c2=O)cc1 (stereo not drawn) [Compound 180] | 2.5 | 82
27 | CCOc1ccc(Cn2ccc(C)c(NC(=O)C(Cc3ccc(C(C)(C)C(=O)O)cc3)NC(=O)C(C)(C)c3ccc4ccccc4c3)c2=O)cc1 (stereo not drawn) [Compound 139] | 2.9 | 56
28 | COc1ccc(Cn2ccc(C)c(NC(=O)C(Cc3ccc(C(C)(C)C(=O)O)cc3)NC(=O)Cc3ccc(C(C)(C)C)cc3)c2=O)cc1 (stereo not drawn) [Compound 173] | 0.31 | 93
29 | CCC(CC)(C(=O)N[C@@H](Cc1ccc(C(C)(C)C(=O)O)cc1)C(=O)Nc1c(C)ccn(Cc2ccc(OC)cc2)c1=O)c1ccc2ccccc2c1 [Compound 123] | 0.84 | 35

Further compounds by falling Kd [1], results first:

Row | Kd [1] [µM] | IC50 [2] [µM] | Structure (SMILES)
30 | 5.4 | 29 | Cc1ccn(CC2CCCCC2)c(=O)c1NC(=O)C(Cc1ccc(C(C)(C)C(=O)O)cc1)NC(=O)C(C)(C)c1ccc2ccccc2c1 (stereo not drawn) [Compound 196]
31 | 3.8 | 54 | COc1ccc(Cn2ccc(C)c(NC(=O)C(Cc3ccc(C(C)(C)C(=O)O)cc3)NC(=O)Cc3ccc4ccccc4c3)c2=O)cc1C (racemic) [Compound 149, 3-[2'-(R,S)-(2""-Naphthylacetyl)amino-3'-[4"-(1'"-carboxy-1"-methyl)ethyl]benzene]propanoylamino-1-(4-methoxy-3-methylbenzyl)-4-methyl-2-pyridone]
32 | 2.8 | 107 | Cc1ccn(Cc2ncc(C(F)(F)F)cc2Cl)c(=O)c1NC(=O)[C@H](Cc1ccc(C(C)(C)C(=O)O)cc1)NC(=O)Cc1ccc2ccccc2c1 [Compound 129]
33 | 1.5 | 60 | COc1ccc(Cn2ccc(C)c(NC(=O)[C@H](Cc3ccc(C(C)(C)C(=O)O)cc3)NC(=O)C(C)c3ccc(CC(C)C)cc3)c2=O)cc1 (stereo partly drawn) [Compound 112]
34 | 1.5 | 42 | COc1ccc(Cn2ccc(C)c(NC(=O)[C@H](Cc3ccc(C(C)(C)C(=O)O)cc3)NC(=O)C(C)(C)c3ccc(CC(C)C)cc3)c2=O)cc1 [Compound 124]
35 | 1.4 | 25 | COc1ccc(Cn2ccc(C)c(NC(=O)C(Cc3ccc(C(C)(C)C(=O)O)cc3)NC(=O)C(C)(C)c3ccc(-c4ccccc4)cc3)c2=O)cc1 (stereo not drawn) [Compound 159]
36 | 1.4 | 52 | COc1ccc(Cn2ccc(C)c(NC(=O)[C@H](Cc3ccc(C(C)(C)C(=O)O)cc3)NC(=O)[C@@H](C)c3ccc(CC(C)C)cc3)c2=O)cc1 [Compound 127]
37 | 1.3 | 53 | COc1ccc(C(C)n2ccc(C)c(NC(=O)C(Cc3ccc(C(C)(C)C(=O)O)cc3)NC(=O)C(C)(C)c3ccc4ccccc4c3)c2=O)cc1 (stereo not drawn) [Compound 184]
38 | 0.68 | 39 | CCC(C(=O)N[C@@H](Cc1ccc(C(C)(C)C(=O)O)cc1)C(=O)Nc1c(C)ccn(Cc2ccc(OC)cc2)c1=O)c1cccc2ccccc12 (stereo partly drawn) [Compound 126]
39 | 0.57 | 96 | COc1ccc(Cn2ccc(C)c(NC(=O)[C@H](Cc3ccc(C(C)(C)C(=O)O)cc3)NC(=O)Cc3cccc4ccccc34)c2=O)cc1 [Compound 2, 3-[2'-(S)-(1"-Naphthylacetyl)amino-3'-[4'"-(1'"-carboxy-1'"-methyl)ethyl]benzene]propanoylamino-1-(4-methoxybenzyl)-4-methyl-2-pyridone]
40 | 0.52 | 116 | COc1ccc(Cn2ccc(C)c(NC(=O)C(Cc3ccc(C(C)(C)C(=O)O)cc3)NC(=O)Cc3cccc4ccccc34)c2=O)cc1 (stereo not drawn) [Compound 169]
41 | 0.51 | 64 | COc1ccc(Cn2ccc(C)c(NC(=O)[C@H](Cc3ccc(C(C)(C)C(=O)O)cc3)NC(=O)Cc3ccc(Br)c4ccccc34)c2=O)cc1 [Compound 111]
42 | 0.18 | 52 | COc1ccc(Cn2ccc(C)c(NC(=O)C(Cc3ccc(C(C)(C)C(=O)O)cc3)NC(=O)Cc3c(OC)ccc4ccccc34)c2=O)cc1 (stereo not drawn) [Compound 187]
